Measured values reported in patent US9040545B2, “Heterocyclyl pyrazolopyrimidine analogues as selective JAK inhibitors” (Cellzome Limited, priority 2010, dated 2015).

Target: T1, Aurora A (Homo sapiens, UniProt O14965)
T1 construct: cell lysates from Jurkat cells (ATCC TIB-152) used; endogenous in cells; host or cells: Jurkat cells (ATCC TIB-152), treated with pervanadate
T1 sequence (O14965 1-403): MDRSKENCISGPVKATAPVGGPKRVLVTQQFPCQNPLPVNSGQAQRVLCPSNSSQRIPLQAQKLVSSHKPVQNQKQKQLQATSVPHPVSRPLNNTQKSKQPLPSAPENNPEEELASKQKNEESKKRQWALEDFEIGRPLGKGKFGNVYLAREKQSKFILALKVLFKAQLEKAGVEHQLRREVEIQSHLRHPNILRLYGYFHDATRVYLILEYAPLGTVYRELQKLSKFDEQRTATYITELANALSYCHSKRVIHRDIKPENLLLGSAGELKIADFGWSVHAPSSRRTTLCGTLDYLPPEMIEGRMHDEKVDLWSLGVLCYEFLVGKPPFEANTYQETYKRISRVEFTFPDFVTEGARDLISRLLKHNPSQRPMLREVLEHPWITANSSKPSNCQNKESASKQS
Assay: Kinobeads assay, Aurora A
Assay type: binding
Details: for IC50: lysate of pervanadate-treated Jurkat cells, read-out: Inhibition values (IC50) Aur A
Procedure: The compounds of the present invention as described in the previous examples were tested in a Kinobeads™ assay as described for ZAP-70 (WO-A 2007/137867). Briefly, test compounds (at various concentrations) and the affinity matrix with the immobilized aminopyrido-pyrimidine ligand 24 were added to cell lysate aliquots and allowed to bind to the proteins in the lysate sample. After the incubation time the beads with captured proteins were separated from the lysate. Bound proteins were then eluted and the presence of JAK2 and JAK3 was detected and quantified using specific antibodies in a dot blot procedure and the Odyssey infrared detection system. Dose response curves for individual kinases were generated and IC50 values calculated. Kinobeads™ assays for ZAP-70 (WO-A 2007/137867) and for kinase selectivity profiling (WO-A 2006/134056) have been previously described.
The affinity matrix was washed two times with 15 mL of 1×DP buffer containing 0.2% NP40 (IGEPAL® CA-630, Sigma, #I3021) and then resuspended in 1×DP buffer containing 0.2% NP40 (3% beads slurry).
5×DP buffer 250 mM Tris-HCl pH 7.4, 25% Glycerol, 7.5 mM MgCl2, 750 mM NaCl, 5 mM Na3VO4; filter the 5×DP buffer through a 0.22 μm filter and store in aliquots at −80° C. The 5×DP buffer is diluted with H2O to 1×DP buffer containing 1 mM DTT and 25 mM NaF.
Stock solutions of test compounds were prepared in DMSO. In a 96 well plate 30 μL solution of diluted test compounds at 5 mM in DMSO were prepared. Starting with this solution a 1:3 dilution series (9 steps) was prepared. For control experiments (no test compound) a buffer containing 2% DMSO was used.
Cell lysate (approximately 50 mg protein per plate) was thawed in a water bath at room temperature and then stored on ice. To the thawed cell lysate 1×DP 0.8% NP40 buffer containing protease inhibitors (1 tablet for 25 mL buffer; EDTA-free protease inhibitor cocktail; Roche Diagnostics 1873580) was added in order to reach a final protein concentration of 10 mg/mL total protein. The diluted cell lysate was stored on ice. Mixed Molt4/Ramos lysate was prepared by combining one volume of Molt4 lysate and two volumes of Ramos lysate (ratio 1:2).
To a 96 well filter plate (Multiscreen HTS, BV Filter Plates, Millipore #MSBVN1250) were added per well: 100 μL affinity matrix (3% beads slurry), 3 μL of compound solution, and 50 μL of diluted lysate. Plates were sealed and incubated for 3 hours in a cold room on a plate shaker (Heidolph tiramax 1000) at 750 rpm. Afterwards the plate was washed 3 times with 230 μL washing buffer (1×DP 0.4% NP40). The filter plate was placed on top of a collection 1 plate (Greiner bio-one, PP-microplate 96 well V-shape, 65120) and the beads were then eluted with 20 μL of sample buffer (100 mM Tris, pH 7.4, 4% SDS, 0.00025% bromophenol blue, 20% glycerol, 50 mM DTT). The eluate was frozen quickly at −80° C. and stored at −20° C.
The kinases in the eluates were detected and quantified by spotting on nitrocellulose membranes and using a first antibody directed against the kinase of interest and a fluorescently labelled secondary antibody (anti-rabbit IRDye™ antibody 800 (Licor, #926-32211). The Odyssey Infrared Imaging system from LI-COR Biosciences (Lincoln, Nebr., USA) was operated according to instructions provided by the manufacturer (Schutz-Geschwendener et al, 2004. Quantitative, two-color Western blot detection with infrared fluorescence. Published May 2004 by LI-COR Biosciences, www.licor.com).
After spotting of the eluates the nitrocellulose membrane (BioTrace NT; PALL, #BTNT30R) was first blocked by incubation with Odyssey blocking buffer (LICOR, 927-40000) for 1 hour at room temperature. Blocked membranes were then incubated for 16 hours at the temperature shown in Table 5 with the first antibody diluted in Odyssey blocking buffer (LICOR #927-40000). Afterwards the membrane was washed twice for 10 minutes with PBS buffer containing 0.2% Tween 20 at room temperature. […]

Row | Compound | JAK3/AurA Fold Selectivity | IC50 [nM]
1 | Cn1cc(Nc2ncc3cnn(Cc4cccc(N5CCNCC5)c4)c3n2)cn1 [Example 22, N-(1-Methyl-1H-pyrazol-4-yl)-1-(3-(piperazin-1-yl)benzyl)-1H-pyrazolo[3,4-d]pyrimidin-6-amine] | 10-50 Fold | 100 to 1000
2 | FC(F)Cn1cc(Nc2ncc3cnn(Cc4cccc(N5CCOCC5)c4)c3n2)cn1 [Example 23, N-(1-(2,2-Difluoroethyl)-1H-pyrazol-4-yl)-1-(3-morpholinobenzyl)-1H-pyrazolo[3,4-d]pyrimidin-6-amine] | 3-10 Fold | 100 to 1000
3 | CNC(=O)CCn1cc(Nc2ncc3cnn(Cc4cccc(N5CCOCC5)c4)c3n2)cn1 [Example 24, N-Methyl-3-(4-((1-(3-morpholinobenzyl)-1H-pyrazolo[3,4-d]pyrimidin-6-yl)amino)-1H-pyrazol-1-yl)propanamide] | 10-50 Fold | 100 to 1000
4 | Cn1cc(Nc2ncc3cnn(Cc4cccc(N5CCS(=O)(=O)CC5)c4)c3n2)cn1 [Example 25, 4-(3-((6-((1-Methyl-1H-pyrazol-4-yl)amino)-1H-pyrazolo[3,4-d]pyrimidin-1-yl)methyl)phenyl)thiomorpholine 1,1-dioxide] | 10-50 Fold | 100 to 1000
5 | Cn1cc(Nc2ncc3cnn(Cc4cccc(N5CC6CCC(C5)O6)c4)c3n2)cn1 [Example 26] | 3-10 Fold | 100 to 1000
6 | Cn1cc(Nc2ncc3cnn(Cc4cccc(N5CCOCC5=O)c4)c3n2)cn1 [Example 27, 4-(3-((6-((1-Methyl-1H-pyrazol-4-yl)amino)-1H-pyrazolo[3,4-d]pyrimidin-1-yl)methyl)phenyl)morpholin-3-one] | 10-50 Fold | 100 to 1000
7 | CN(C)CCCn1cc(Nc2ncc3cnn(Cc4cccc(N5CCOCC5=O)c4)c3n2)cn1 [Example 28, 4-(3-((6-((1-(3-(Dimethylamino)propyl)-1H-pyrazol-4-yl)amino)-1H-pyrazolo[3,4-d]pyrimidin-1-yl)methyl)phenyl)morpholin-3-one] | >50 Fold | 100 to 1000
8 | O=C1COCCN1c1cccc(Cn2ncc3cnc(Nc4cnn(CCO)c4)nc32)c1 [Example 29, 4-(3-((6-((1-(2-Hydroxyethyl)-1H-pyrazol-4-yl)amino)-1H-pyrazolo[3,4-d]pyrimidin-1-yl)methyl)phenyl)morpholin-3-one] | 3-10 Fold | 100 to 1000
9 | O=C1CCCN1CCCn1cc(Nc2ncc3cnn(Cc4cccc(N5CCOCC5)c4)c3n2)cn1 [Example 30, 1-(3-(4-((1-(3-Morpholinobenzyl)-1H-pyrazolo[3,4-d]pyrimidin-6-yl)amino)-1H-pyrazol-1-yl)propyl)pyrrolidin-2-one] | 10-50 Fold | 100 to 1000
10 | CN(C)CC1(Cn2cc(Nc3ncc4cnn(Cc5cccc(N6CCOCC6)c5)c4n3)cn2)COC1 [Example 31, N-(1-((3-((Dimethylamino)methyl)oxetan-3-yl)methyl)-1H-pyrazol-4-yl)-1-(3-morpholinobenzyl)-1H-pyrazolo[3,4-d]pyrimidin-6-amine] | 3-10 Fold | 100 to 1000
11 | CC(CN(C)C)Cn1cc(Nc2ncc3cnn(Cc4cccc(N5CCOCC5)c4)c3n2)cn1 (stereo not drawn) [Example 32, N-(1-(3-(Dimethylamino)-2-methylpropyl)-1H-pyrazol-4-yl)-1-(3-morpholinobenzyl)-1H-pyrazolo[3,4-d]pyrimidin-6-amine] | 10-50 Fold | 1000 to 10000
12 | CN(C)CC(O)Cn1cc(Nc2ncc3cnn(Cc4cccc(N5CCOCC5)c4)c3n2)cn1 (stereo not drawn) [Example 33, 1-(Dimethylamino)-3-(4-((1-(3-morpholinobenzyl)-1H-pyrazolo[3,4-d]pyrimidin-6-yl)amino)-1H-pyrazol-1-yl)propan-2-ol] | >50 Fold | 1000 to 10000
13 | NCCCn1cc(Nc2ncc3cnn(Cc4cccc(N5CCOCC5)c4)c3n2)cn1 [Example 34, N-(1-(3-Aminopropyl)-1H-pyrazol-4-yl)-1-(3-morpholinobenzyl)-1H-pyrazolo[3,4-d]pyrimidin-6-amine] | 10-50 Fold | 100 to 1000
14 | O=C(CCn1cc(Nc2ncc3cnn(Cc4cccc(N5CCOCC5)c4)c3n2)cn1)NC1CC1 [Example 35, N-Cyclopropyl-3-(4-((1-(3-morpholinobenzyl)-1H-pyrazolo[3,4-d]pyrimidin-6-yl)amino)-1H-pyrazol-1-yl)propanamide] | 10-50 Fold | 100 to 1000
15 | Cn1cc(Nc2ncc3cnn(Cc4cccc(N5CCNCC5=O)c4)c3n2)cn1 [Example 36, 1-(3-((6-((1-Methyl-1H-pyrazol-4-yl)amino)-1H-pyrazolo[3,4-d]pyrimidin-1-yl)methyl)phenyl)piperazin-2-one] | 10-50 Fold | 100 to 1000
16 | Cn1cc(Nc2ncc3cnn(Cc4cc(N5CCOCC5)cc(F)c4F)c3n2)cn1 [Example 37, 1-(2,3-Difluoro-5-morpholinobenzyl)-N-(1-methyl-1H-pyrazol-4-yl)-1H-pyrazolo[3,4-d]pyrimidin-6-amine] | 10-50 Fold | 1000 to 10000
17 | Cn1cc(Nc2ncc3cnn(Cc4c(F)ccc(N5CCOCC5)c4F)c3n2)cn1 [Example 38, 1-(2,6-Difluoro-3-morpholinobenzyl)-N-(1-methyl-1H-pyrazol-4-yl)-1H-pyrazolo[3,4-d]pyrimidin-6-amine] | 10-50 Fold | 100 to 1000
18 | OCCn1cc(Nc2ncc3cnn(Cc4cccc(N5CCOCC5)c4F)c3n2)cn1 [Example 39, 2-(4-((1-(2-Fluoro-3-morpholinobenzyl)-1H-pyrazolo[3,4-d]pyrimidin-6-yl)amino)-1H-pyrazol-1-yl)ethanol] | 10-50 Fold | 100 to 1000
19 | Cn1cc(Nc2ncc3cnn(Cc4cccc(N5CCOCC5=O)c4F)c3n2)cn1 [Example 40, 4-(2-Fluoro-3-((6-((1-methyl-1H-pyrazol-4-yl)amino)-1H-pyrazolo[3,4-d]pyrimidin-1-yl)methyl)phenyl)morpholin-3-one] | 10-50 Fold | 100 to 1000
20 | CNCC1(Cn2cc(Nc3ncc4cnn(Cc5cccc(N6CCOCC6)c5)c4n3)cn2)COC1 [Example 41, N-(1-((3-((Methylamino)methyl)oxetan-3-yl)methyl)-1H-pyrazol-4-yl)-1-(3-morpholinobenzyl)-1H-pyrazolo[3,4-d]pyrimidin-6-amine] | 10-50 Fold | 1000 to 10000
21 | Cn1cc(Nc2ncc3cnn(Cc4cccc(N5CC6(COC6)C5)c4)c3n2)cn1 [Example 89, 1-(3-(2-oxa-6-azaspiro[3.3]heptan-6-yl)benzyl)-N-(1-methyl-1H-pyrazol-4-yl)-1H-pyrazolo[3,4-d]pyrimidin-6-amine] | 10-50 Fold | 100 to 1000
